Converted amounts (≈) assume the structure as drawn. “Also recorded” adds a separate entry of the source. Where two headings read alike, the source gives them in different places.
Assays:
[1] = tested on: M. tuberculosis; design: method as in PMID 23287128; conditions: ref [31]; cited from earlier work
[2] = tested on: M. tuberculosis H37Rv; assay: MIC by agar dilution method; assay type: cell-based; conditions: Mycobacterium tuberculosis, acidic agar pH 5.5 to 6, 30 days
[3] = assay type: in vitro ADME, mouse
Procedure: Test compounds were weighed and dissolved in dimethyl sulfoxide (DMSO) to give 10 mM stock solutions. The stock solutions were diluted to 500 μM with a mixture of methanol and H2O (1:1), and the final concentrations of DMSO and methanol were equal to, or less than, 0.1%. Liver microsome incubations were conducted in duplicate in 96—well plates. Each well contained 40 μL of 0.1 M potassium phosphate buffer (pH 7.4), 2.5 mM MgCl2, 0.625 mg/mL mouse liver microsomes, and test compound (1.25 μM) or positive control. After a 5 min pre-incubation at 37°C, 10 μL of 5.0 mM NADPH in 0.1 M potassium phosphate buffer was added to initiate the enzymatic reaction. The final concentrations were 0.1M potassium phosphate (pH 7.4), 1.0 mM NADPH, 2.0 mM MgCl2, 0.5 mg/mL mouse liver microsomes, and test compound (1.0 μM) or positive control (1.0 μM). Reactions were terminated at various time points (0, 5, 10, 20, 40 min) by adding 100 μL of ice-cold acetonitrile containing internal standard. A parallel incubation was performed using 0.1 M potassium phosphate (pH 7.4) instead of NADPH as the negative control, and the reaction was terminated 40 min after incubation at 37°C. Compound quantitation was performed on a Shimadzu liquid chromatographic system coupled with an API4000 mass spectrometer equipped with TurboIonSpray (ESI) Interface (Applied Biosystems).

[4] = tested on: heat-killed control cultures; assay: Accumulation assay in heat-killed bacteria (negative control); conditions: heat-killed 90°C for 30 min
[5] = tested on: M. tuberculosis (H37Rv); assay: In vitro accumulation assay, M. tuberculosis; assay type: cell-based; conditions: 120 min of incubation
[6] = tested on: J774A.1 murine macrophage cells; assay: Uptake assay in macrophage cells; assay type: cell-based; conditions: 120 min of incubation
[7] = tested on: Escherichia coli (ATCC 25922); assay: In vitro accumulation assay, E. coli; assay type: cell-based; conditions: 120 min of incubation
[8] = tested on: Staphylococcus aureus (ATCC 29213); assay: In vitro accumulation assay, S. aureus; assay type: cell-based; conditions: 120 min of incubation
[9] = mouse, 740 kBq/mL
[10] = tested on: Pseudomonas aeruginosa (ATCC 10145); assay: In vitro accumulation assay, P. aeruginosa; assay type: cell-based; conditions: 120 min of incubation
[11] = PET/CT imaging and ex vivo biodistribution in M. tuberculosis-infected and uninfected mice
[12] = M. tuberculosis H37Rv, read-out: MIC

**Q.** For `NC(=O)c1cnc(Cl)cn1` [5-Cl-PZA, 5-Chloropyrazinamide], which “activity in M. tuberculosis-infected mice” value [1] is on record?
**A.** lack of activity

**Q.** Which MIC ([2]; H37RV, read-out: concentration up to which bacterial growth was not inhibited (MIC)) does the source give for `NC(=O)c1cnc(F)cn1` [5-F-PZA, 5-Fluoropyrazinamide] here?
**A.** > 2000 µg/mL

**Q.** And the MIC [2, 12]?
**A.** > 2000 µg/mL

**Q.** And the “fraction of initial concentration metabolized” value ([3]; CD-1, mouse, microsomes, 40 min, 1 μM, pH 7.4)?
**A.** approximately 20%

**Q.** And the “stability in the presence of liver microsomes” value ([3]; mouse)?
**A.** not stable

**Q.** What does the source list for `NC(=O)c1cnc([18F])cn1` [5-[^18F]F-PZA, 5-[^18F]F-pyrazinamide]?
**A.** Uptake in heat-killed control cultures [4]: no uptake; In vitro accumulation in M. tuberculosis [5]: 0.094%; Accumulation in J774A.1 murine macrophage cells [6]: 0.057±0.019; In vitro accumulation in E. coli [7]: 0.055±0.005; In vitro accumulation in S. aureus [8]: 0.123±0.014; incubation time after which defluorination could be detected [9]: 2 min; percent of total activity defluorinated ([9]; 30 min): ~ 25%; percent defluorination ([9]; 60 min): ~ 40%; In vitro accumulation in P. aeruginosa [10]: 0.043±0.026; bone activity ([11]; PET 10 min and 30 min post-injection, post-mortem analysis): significant activity in the bones; distribution to organs after intravenous administration ([11]; PET imaging): rapidly distributed to various organs; elimination from organs ([11]; PET imaging): rapidly eliminated from all major organs; ex vivo activity in lung (and spleen), infected vs uninfected ([11]; direct γ counting after PET imaging): higher activity in uninfected lung tissue compared to infected lungs; also recorded: higher activity in uninfected lung and spleen tissues; PET concentration (%ID/cc) in blood, liver, bone and lungs, infected vs uninfected mice ([11]; intravenous, throughout 60 min post-injection): not significantly different; also recorded: No significant difference

**Q.** Which MIC [2, 12] does the source give for `NC(=O)c1cnccn1` [PZA, pyrazinamide] here?
**A.** 20 µg/mL (≈ 0.162 mM)

Source: PMC5289470, “The biodistribution of 5-[^18F]fluoropyrazinamide in Mycobacterium tuberculosis-infected mice determined by positron emission tomography” (PLoS ONE, 2017)
